Earlier results as cited in patent US8986714B2, “Formulations, methods and procedures for reducing or preventing the development, or the risk of development, of neuropathology as a result of trauma” (Sapna Life Sciences Corporation, priority 2013, dated 2015).

Tests used:
[1] = tested on: chemotherapy-induced nausea and vomiting; conditions: in conjunction with another antiemetic drug
[2] = tested on: chronic spinal cord injury; conditions: chronic spinal cord injury patients, first two weeks
[3] = tested on: amyotrophic lateral sclerosis
[4] = tested on: chronic spinal cord injury; conditions: stable chronic spinal cord injury patients
[5] = tested on: partial sciatic nerve ligation; conditions: compared to controls
[6] = tested on: peripheral nerve crush injury; conditions: facial nerve and sciatic nerve injury models
[7] = tested on: chronic post-surgical pain; conditions: perioperative administration; at two months or more after various types of surgery
[8] = tested on: spinal cord ischemia; conditions: rabbits
[9] = tested on: spinal cord compression; conditions: in vivo
[10] = tested on: immature mouse brain ischemia; conditions: treatment of acute seizures; measured four weeks later
[11] = tested on: postherpetic neuralgia; conditions: combined with valacyclovir; six months later
[12] = tested on: rat model of neuropathic pain
[13] = tested on: traumatic brain injury; conditions: approximately 80 patients treated within eight hours after traumatic brain injury
[14] = tested on: migraine attacks; conditions: human, in vivo
[15] = tested on: cat spinal dorsal horn neurons; conditions: noxious cutaneous stimulation and substance P

For `C[C@@H](O[C@H]1OCCN(Cc2n[nH]c(=O)[nH]2)[C@H]1c1ccc(F)cc1)c1cc(C(F)(F)F)cc(C(F)(F)F)c1` [aprepitant], the “acute effects on chemotherapy-induced nausea and vomiting” value [1] is listed as “proved to be effective when administered in conjunction with another antiemetic drug”.

In the case of `O=C([O-])[O-].[Li+].[Li+]` [lithium carbonate], the tolerability [2] is given as “well tolerated over the first two weeks”, the mortality ([3]; 22 patients, over 15 months) is given as “prevented death of 22 patients” and the motor deterioration ([3]; 22 patients, over 15 months) is given as “only minimal motor deterioration”. For the same compound, the plasma levels ([3]; daily oral doses) was 400 to 800 µM and the “effect on neurological symptoms” value [4] was “without effect on neurological symptoms”.

In the case of `[Cl-].[Li+]` [lithium chloride], the “nociceptive scores in response to tactile and thermal stimuli” value [5] is listed as “reduced the nociceptive scores”, the “expression of myelin genes” value [6] is listed as “stimulate the expression of myelin genes” and the functional recovery [6] is listed as “accelerate functional recovery”. The myelin structure [6] was “restore myelin structure”.

For `NCC1(CC(=O)O)CCCCC1` [gabapentin], the “incidence of chronic post-surgical pain” value [7] is given as “reducing the incidence of chronic post-surgical pain”, the “outcomes of neuropathology, spinal cord ischemia” value [8] is given as “preventive effects” and the “outcomes of neuropathology, spinal cord compression” value [9] is given as “preventive effects”. The brain atrophy [10] was “beneficial effects on brain atrophy” and the “rate of postherpetic neuralgia” value [11] was “reduced”.

In the case of `CC(=O)[C@H]1CC[C@H]2[C@@H]3CCC4=CC(=O)CC[C@]4(C)[C@H]3CC[C@]12C` [progesterone], the “development of symptoms of peripheral nerve injury” value ([12]; early administration, intraperitoneally) is given as “prevents the development of symptoms of peripheral nerve injury”, the “tactile hypersensitivity, late treatment” value ([12]; given for 11 days, starting on day 20, versus control group) is given as “no difference between this experimental group and the control group” and the “tactile hypersensitivity by 30 days” value ([12]; started one hour after model induction, daily for the subsequent 10 days) is given as “no tactile hypersensitivity”. For the same compound, the “persistence of effect after treatment ended on day 10” value ([12]; study period ended at day 85) was “persisted to the end of the study period” and the neurological outcomes [13] was “improved neurological outcomes”.

For `COc1ccccc1[C@H](C)C(=O)N1C[C@@H]2[C@H](C1)C(c1ccccc1)(c1ccccc1)CC[C@@]2(O)c1ccccc1OC` [RPR100893], the “treatment of migraine attacks” value [14] is listed as “not effective”.

In the case of `COc1ccccc1CN[C@H]1C2CCN(CC2)[C@H]1C(c1ccccc1)c1ccccc1` [CP-96,345], the “recovery from peripheral nerve injury” value ([12]; animal model) is listed as “promotes the recovery from peripheral nerve injury” and the “responses of spinal dorsal horn neurons” value [15] is listed as “blocks responses of cat spinal dorsal horn neurons to noxious cutaneous stimulation and to substance P”.
